# Source: patent publication US20050148495A1, “Methods and materials including for treating acne” (priority 2003, published 2005)
# Like-named read-outs stand apart in the source and are kept apart here. Non-standard residues stand in square brackets, D forms with d. Residues, ends and D or L forms follow the SMILES beside them. d1Nal = N[C@H](Cc1cccc2ccccc12)C(=O)O
# Columns and labels:
# [1] = system: Staphylococcus aureus; conditions: for MBC: agent alone
# [2] = system: Corynebacterium; assay: microbe, parasite or virus in culture; format: cell-based
# Protocol: (§1) Control tubes containing only water or formulation buffer were prepared for each isolate. Initial growth controls were determined by removing 10 μL from the water control tube and diluting it by 100 fold. From this dilution, 10 μL was used for inoculation and for spreading over the surface onto Laked Blood Agar (LBA) (Anaerobe Systems, Morgan Hill, Calif.) plates. The tubes and plates were incubated in an anaerobic atmosphere at 37° C. for 48 h. […] MBC50 and 90 values represent where 50 and 90%, respectively, of the tested strain's MBC values are equal to or less than the indicated concentration.
# [3] = system: Macrococcus caseolyticus; conditions: Macrococcus caseolyticus 29750
# [4] = system: intact and abraded skin of New Zealand White rabbits; assay: Rabbit primary skin irritation test (Draize); format: in vivo; conditions: 4 hour exposure
# Protocol: XMP.629 was evaluated for any potential dermal irritant effects in the rabbit primary skin irritation test for this dermal irritation study, XMP.629 was tested on intact and abraded skin in three New Zealand White rabbits. All animals received 0.5 mL of XMP.629 on each intact and abraded dorsal skin application site. This was accomplished by placing a gauze patch directly on the skin of each application site and saturating the patch with 0.5 mL of the XMP.629 solution. The application sites were then wrapped with gauze bandaging and non-irritating semi-occlusive tape. Elizabethan collars were then applied for the 4 hour exposure period. At the end of the 4 hour exposure period, the collars and wrappings were removed and any residual XMP.629 removed. The test sites were evaluated using the standard Draize scoring system (Draize et al., 1944, J. Pharmacol, Exp. Ther. 82: 377-390) for erythema and edema within 30 to 60 minutes and 24, 48, and 72 hours following patch removal.
# [5] = system: Clostridium difficile; conditions: Clostridium difficile 9689
# [6] = system: S. aureus; assay: Comparison of XMP.629 with standard topical agents (MIC90/MBC); format: cell-based, Staphylococcus aureus
# Protocol: as §1
# [7] = system: eye of New Zealand White rabbits; assay: Rabbit primary eye irritation test (Draize); format: in vivo
# Protocol: XMP.629 was evaluated in a rabbit primary eye irritation test for potential ocular irritant and/or corrosive effects when topically applied to the eye of three New Zealand White rabbits.
# All animals received 0.1 mL of a 2% solution XMP.629 in 10 mM sodium acetate instilled into the right conjunctival sac and left in place for 24 hours. The control eye was untreated. The treated eye was washed out with 100 mL of lukewarm water for one to two minutes at approximately 24 hours post-dose. The treated and control eyes were examined at approximately 1, 24, 48, and 72 hours post-dose and on days 5, 8, and 15 for ocular irritation using the standard Draize scoring system (Draize et al., 1944, supra). Sodium fluorescein and ultraviolet light was used to examine for possible corneal injury.
# [8] = system: P. granulosum; format: cell-based, Propionibacterium granulosum
# Protocol: This example addresses studies relating to the antimicrobial activities of XMP.629. An in vitro assessment of antibiotic activity in XMP.629 and various known antibiotics against a representative panel of bacterial strains associated with acne was conducted. A broth dilution methodology was employed using guidelines established by National Committee for Clinical Laboratory Standards (NCCLS) for anaerobic organisms to establish an antibacterial profile for XMP.629. Assays to determine the minimal bactericidal concentrations (MBC) and minimal inhibitory concentration (MIC) were conducted for XMP.629 and other known antibiotics. Furthermore, test to determine post antibiotic effect (PAE) of XMP.629 were done.
# Inoculum from a representative panel of bacterial strains associated with acne, such as P. acnes, P. avidum, P. granulosum, and Staphylococcus epidermis was prepared by suspending approximately 5-10 isolated bacterial colonies in pre-reduced MicroScan® Inoculum Water (Dade Behring, Deerfield, Ill.), and growing the bacterial suspension to log phase (approximately 48 hrs). An inoculum of between 1-5×10^6/mL was achieved by adding 100 μL of the suspension to 25 mL Brain Heart Infusion Broth (BHI) (Anaerobe Systems, Morgan Hill, Calif.).
# A stock solution of XMP.629 dissolved in water at a concentration of 4.0 mg/mL was prepared. Dilute solutions of XMP.629 at concentrations ranging from about 1.25 to about 160 μg/mL were made in either water or formulation buffer (130 mM sodium chloride, 0.2% P103 (poloxamer 333), and 0.10% EDTA, pH 7.3). Aqueous stock solutions of clindamycin and erythromycin were prepared in water.
# Each tube, containing a final volume of 1 mL, was mixed by vortexing. Control tubes containing only water or formulation buffer were prepared for each isolate. Initial growth controls were determined by removing 10 μL from the water control tube and diluting it by 100 fold. From this dilution, 10 μL was used for inoculation and for spreading over the surface onto Laked Blood Agar (LBA) (Anaerobe Systems, Morgan Hill, Calif.) plates. The tubes and plates were incubated in an anaerobic atmosphere at 37° C. for 48 h. After incubation, the tubes were mixed and 10 μL samples were removed from each tube for additional plating. These plates were then further incubated in an anaerobic atmosphere at 37° C. for 48-72 h and the resulting colonies were counted. After adjusting for the dilution factor, the lowest concentration of drug or combination of drugs reducing the inoculum by ≧99.9% was considered to be the minimum bactericidal concentration (MBC). MBC50 and 90 values represent where 50 and 90%, respectively, of the tested strain's MBC values are equal to or less than the indicated concentration. The lowest concentration of antibiotic(s) that inhibited visible growth in the culture tubes was considered to be the minimal inhibitory concentration (MIC).
# For comparison, additional Propionibacterium strains, were tested.
# [9] = RMA 5740, Formulation Buffer Solvent, Study 1
# [10] = RMA 5740, Formulation Buffer Solvent, Study 2
# [11] = RMA 5740, Water Solvent, Study 1
# [12] = RMA 5740, Water Solvent, Study 2
# [13] = RMA 6867, Formulation Buffer Solvent, Study 1
# [14] = RMA 6867, Formulation Buffer Solvent, Study 2
# [15] = RMA 6867, Water Solvent, Study 1
# [16] = RMA 6867, Water Solvent, Study 2
# [17] = RMA 7093, Formulation Buffer Solvent, Study 1
# [18] = RMA 7093, Formulation Buffer Solvent, Study 2
# [19] = RMA 7093, Water Solvent, Study 1
# [20] = RMA 7093, Water Solvent, Study 2
# [21] = RMA 11787, Formulation Buffer Solvent, Study 1
# [22] = RMA 11787, Formulation Buffer Solvent, Study 2
# [23] = RMA 11787, Water Solvent, Study 1
# [24] = RMA 11787, Water Solvent, Study 2
smiles,measurement,setting,value
"CC(C)C[C@@H](NC(=O)[C@H](N)CCCCN)C(=O)N[C@H](Cc1ccccc1)C(=O)N[C@H](CCCNC(=N)N)C(=O)N[C@H](Cc1cccc2ccccc12)C(=O)N[C@H](CCC(N)=O)C(=O)N[C@H](C)C(=O)N[C@H](CCCCN)C(=O)N[C@H](Cc1cccc2ccccc12)C(N)=O [XMP.629, NH2-lys-leu-phe-arg-(3-(1-naphthyl)-ala)-gln-ala-lys-(3-(1-naphthyl)-ala)-CONH2] (H-[dK][dL][dF][dR][d1Nal][dQ][dA][dK][d1Nal]-NH2)",MBC,[1]; Staphylococcus aureus 076U-550,8 µg/mL
same,MBC,[1]; Staphylococcus aureus 230U-579,8 µg/mL
same,MBC,[1]; Staphylococcus aureus 314U-148,8 µg/mL
same,XMP.629 MBC,"[1]; Staphylococcus aureus 342U-116, XMP.629 alone",8 µg/mL
same,MBC,[1]; Staphylococcus aureus 342U-116,8 µg/mL
same,MBC,[1]; Staphylococcus aureus 15031-1857,4 µg/mL
same,"MIC90, XMP.629 data reported as MBC values",[2],0.25 µg/mL
same,"MIC90, XMP.629 data reported as MBC values",[2]; in FB (formulation buffer),<0.25 µg/mL
same,Minimum Inhibitory Concentrations,[3],2.00 µg/mL
same,dermal irritation,[4]; abraded skin,only mildly irritating
same,dermal irritation,[4]; intact skin,not irritating
same,Minimum Inhibitory Concentrations,[5],2.00 µg/mL
same,"MIC90, XMP.629 data reported as MBC values",[6],8 µg/mL
same,"MIC90, XMP.629 data reported as MBC values",[6]; in FB (formulation buffer),0.06 µg/mL
same,"ocular irritation, overall",[7]; 2% XMP.629 in 10 mM sodium acetate solution,mildly irritating
same,corneal opacity,"[7]; 2% solution in 10 mM sodium acetate, any time point",no effects on corneal opacity
same,"iris, average scores","[7]; 2% solution, 48 hours post-instillation",less than 1
same,MBC50,"[8]; P. granulosum, 4 strains",0.25 µg/mL
same,MBC90,"[8]; P. granulosum, 4 strains",4 µg/mL
same,MBC Range,"[8]; P. granulosum, 4 strains, in µg/mL",0.25-4
same,MBC,[8]; [9],2 µg/mL
same,MIC,[8]; [9],1 µg/mL
same,MBC,[8]; [10],0.25 µg/mL
same,MIC,[8]; [10],0.25 µg/mL
same,MBC,[8]; [11],4 µg/mL
same,MIC,[8]; [11],2 µg/mL
same,MBC,[8]; [12],1 µg/mL
same,MIC,[8]; [12],1 µg/mL
same,MBC,[8]; [13],2 µg/mL
same,MIC,[8]; [13],0.5 µg/mL
same,MBC,[8]; [14],4 µg/mL
same,MIC,[8]; [14],4 µg/mL
same,MBC,[8]; [15],2 µg/mL
same,MIC,[8]; [15],1 µg/mL
same,MBC,[8]; [16],4 µg/mL
same,MIC,[8]; [16],4 µg/mL
same,MBC,[8]; [17],2 µg/mL
same,MIC,[8]; [17],1 µg/mL
same,MBC,[8]; [18],0.25 µg/mL
same,MIC,[8]; [18],0.25 µg/mL
same,MBC,[8]; [19],2 µg/mL
same,MIC,[8]; [19],2 µg/mL
same,MBC,[8]; [20],0.5 µg/mL
same,MIC,[8]; [20],1 µg/mL
same,MBC,[8]; [21],2 µg/mL
same,MIC,[8]; [21],2 µg/mL
same,MBC,[8]; [22],0.25 µg/mL
same,MIC,[8]; [22],0.25 µg/mL
same,MBC,[8]; [23],2 µg/mL
same,MIC,[8]; [23],2 µg/mL
same,MBC,[8]; [24],1 µg/mL
same,MIC,[8]; [24],1 µg/mL
